# Patent US9616025B2, “Compressed tablet containing Δ9-tetrahydrocannabinol, method for its manufacture and use of such tablet in oral treatment” (Echo Pharmaceuticals B.V., priority 2013, dated 2017)
# Read-outs that look alike come from different tables or passages of the source.
# Columns and labels:
# [1] = cited from earlier work; for reported tmax-values: previous studies
# [2] = Rate of dissolution of THC, Ph. Eur. 2.9.3, 1 wt % SDS in water pH 7; assay type: physicochemical; conditions: 5 mg THC, pH 7, 36-41° C.
# Procedure: The rate of dissolution of THC from the compressed tablets described in Example 2 was tested according to European Pharmacopeia (Ph. Eur. 2.9.3) for oral tablets (5 mg THC). The rate of dissolution of pure THC (5 mg) was also measured according to the same method for comparison.
# The dissolution medium consisted of a solution of 1 wt % SDS in water. The pH of the medium had been adjusted to pH 7 with diluted HCl. During the experiments, the temperature of the dissolution media was maintained between 36 and 41° C. under stirring.
# After dropping the tablets in the dissolution medium, samples were taken at various time intervals with a disposable syringe. The samples were filtered immediately over a syringe filter into a HPLC vial and analyzed by HPLC.
# Tablets were prepared as in Example 2, except that the sucrose fatty ester (SML) was substituted by glyceryl monostearate (GMS). Dissolution tests as described in example 3 were performed with these tablets and the tablets described in Example 2.
smiles,measurement,setting,value
CCCCCc1cc(O)c2c(c1)OC(C)(C)[C@@H]1CCC(C)=C[C@@H]21 [dronabinol],time to maximal concentration of the active metabolite 11-OHTHC,[1]; published,120 to 204 min
CCCCCCC(C)(C)c1cc(O)c2c(c1)OC(C)(C)C1CCC(=O)CC21 (centres unmarked) [nabilone],reported tmax-values,[1],2 to 4 h
"CCCCCc1cc(O)c2c(c1)OC(C)(C)[C@@H]1CCC(C)=C[C@@H]21 [THC, Δ9-tetrahydrocannabinol]",Plasma THC maximum concentrations,[1]; after a 20 mg dose of oral THC (Ohlsson 1980),4.4 to 11.0 µg/L
same,bioavailability,[1]; inhaled (Ohlsson 1982),up to 27%
same,time of peak concentrations post dose,[1]; oral,1 to 5 h
same,bioavailability,[1]; orally administered (Ohlsson 1982),approximately 6%
same,reported tmax-values,[1],1 to 4 h
same,% (w/w) of THC dissolved,[2]; 1 min,1.0 % (w/w)
same,% (w/w) of THC dissolved,[2]; 4 min,3.5 % (w/w)
same,% (w/w) of THC dissolved,[2]; 8 min,5.8 % (w/w)
same,% (w/w) of THC dissolved,[2]; 15 min,10.2 % (w/w)
